Laboratory results taken from article PMC5373622, “Screening for AMPA receptor auxiliary subunit specific modulators” (PLoS ONE, 2017).
Where “and” joins values, the source holds several entries; their conditions need not be identical. Equal values may be shown once. Read-outs that look alike come from different tables or passages of the source.

Key:
[1] = target: GluA2flip(R)-stargazin (A2R-stg TetON HEK293 cells) (Homo sapiens, UniProt P42262, Q607R); test: Voltage-sensitive dye (VSD) assay (primary screen, counter-screen, CRC) on A2R-stg cells; details: for BaselineReturn: max 250-255 s minus min 0-5 s; for CMPDmaxmin: max-min 8-100 s; for CMPDmaxmin / CMPDSlope: only compound present; for Glumaxmin: max-min normalized value 301-380 s; for Glumaxmin / GluSlope: compound and glutamate present; for GluSlope: slope 310-315 s; for CMPDSlope: slope 11-18 s
Chain of GluA2flip(R)-stargazin (A2R-stg TetON HEK293 cells) (P42262 25-883 isoform P42262-2 Q607R limits assumed): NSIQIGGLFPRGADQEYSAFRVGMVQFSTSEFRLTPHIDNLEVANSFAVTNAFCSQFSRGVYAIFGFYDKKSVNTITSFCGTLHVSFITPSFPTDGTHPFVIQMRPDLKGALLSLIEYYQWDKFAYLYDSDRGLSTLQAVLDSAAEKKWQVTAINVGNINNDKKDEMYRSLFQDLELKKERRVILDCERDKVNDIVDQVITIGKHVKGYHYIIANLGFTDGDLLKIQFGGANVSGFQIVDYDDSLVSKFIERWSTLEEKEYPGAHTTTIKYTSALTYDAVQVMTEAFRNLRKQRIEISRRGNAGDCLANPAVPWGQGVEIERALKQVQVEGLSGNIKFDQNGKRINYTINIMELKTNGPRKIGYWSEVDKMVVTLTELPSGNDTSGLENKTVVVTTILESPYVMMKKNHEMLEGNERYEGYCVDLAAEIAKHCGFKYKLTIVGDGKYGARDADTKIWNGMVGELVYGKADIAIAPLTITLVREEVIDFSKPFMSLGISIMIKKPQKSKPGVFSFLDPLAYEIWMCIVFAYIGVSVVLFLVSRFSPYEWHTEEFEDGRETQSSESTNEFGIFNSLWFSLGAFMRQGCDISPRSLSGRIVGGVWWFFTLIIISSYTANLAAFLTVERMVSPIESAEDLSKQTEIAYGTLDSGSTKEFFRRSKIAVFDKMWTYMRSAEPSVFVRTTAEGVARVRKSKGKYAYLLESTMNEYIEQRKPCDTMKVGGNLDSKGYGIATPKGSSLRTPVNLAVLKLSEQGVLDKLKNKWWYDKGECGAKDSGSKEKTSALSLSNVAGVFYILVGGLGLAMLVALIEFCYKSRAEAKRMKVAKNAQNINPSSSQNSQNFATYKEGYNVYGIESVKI
Chain of GluA2flip(R)-stargazin (A2R-stg TetON HEK293 cells) (Q9Y698 whole entry partner): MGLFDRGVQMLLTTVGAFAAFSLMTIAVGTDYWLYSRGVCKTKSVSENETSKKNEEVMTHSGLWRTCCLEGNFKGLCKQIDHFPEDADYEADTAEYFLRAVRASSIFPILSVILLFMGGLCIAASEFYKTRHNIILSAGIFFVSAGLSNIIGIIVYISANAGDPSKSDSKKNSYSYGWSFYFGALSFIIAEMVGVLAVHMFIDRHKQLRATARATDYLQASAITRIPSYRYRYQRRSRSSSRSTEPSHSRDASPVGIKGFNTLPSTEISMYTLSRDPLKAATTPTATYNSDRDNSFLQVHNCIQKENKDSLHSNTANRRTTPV
Protocol: Cell lines used in the VSD assays were TetON HEK293 cells. […] We used GluA2flip(R) TetON HEK cell clone #4 that doxycycline (DOX) dependently expresses GluA2flip(R) (A2R). The A2R cells were used as the base cell line to derive cell lines that co-express auxiliary subunits.
(§1) Greiner 384-pp round-bottom plates containing glutamate for the second add were dispensed by hand using a multi-channel pipet at 5X final concentration. A2R-stg cells were plated in 384-well BD PureCoat amine-coated plates (Corning Life Sciences) at 16k cells/well in DMEM medium supplemented with 10% heat-inactivated FBS and 100U/mL PenStrep antibiotic. […] Cells were incubated overnight (O/N) and washed 4 times in HBSS containing 20 mM HEPES, pH 7.4, on an ELX405CW liquid aspirator and dispenser (BioTek). Buffer was left in the wells and an equal amount of 2X FLIPR dye solution was added and incubated on the cells at room temperature for 45 min. Fluorescence signal was collected at 1 Hz using Ex. 480±20 nm/Em. 540±40 nm on a Hamamatsu Functional Drug Screening System 6000 (FDSS). Baseline signal was collected for 10 seconds followed by addition of 10 μl of 5X compound for a final concentration of 10 μM.
Hits were selected from this initial screen using 4 different criteria, which we termed CMPDslope, CMPDmaxmin, GLUslope, and GLUmaxmin. […] GLUslope is the fitted slope of the increase in fluorescence within 10 sec after adding glutamate. GLUmaxmin is the difference in the minimum and maximum value in fluorescence signal reached in the 100 sec window after adding glutamate. Compounds were classified as hits if they differed by 3 standard deviations of the mean for each criterion. Tier 1 hits were classified as those that hit in the GLUslope, GLUmaxmin, and CMPDmaxmin windows. Tier 2 hits were classified as compounds that hit in the GLUslope window and either the GLUmaxmin or CMPDmaxmin window. Tier 3 hits were classified as those that hit in only the GLUslope or the GLUmaxmin window. Tier 4 hits were classified as compounds that hit only in the CMPD window, CMPDslope or CMPDmaxmin. Hit selection was further narrowed using the criterion that their signal must return to near baseline values before entering the glutamate add window.
VSD concentration response curves (CRCs): After the above counter-screens, compounds that remained positive were moved forward to collect complete CRCs for A2R-stg and A2R-C3 cell lines. This assay was carried out in the same way as the VSD screening assay except a 10-point concentration curve, from 40 μM to 10 nM, was plated in triplicate for each compound on a single 384-well plate. Data were summarized by plotting them as %max GLUslope against log [compound] that was fit to a four-parameter logistical model. %max GLUslope is defined as a normalized GLUslope expressed as a percentage of the mean maximum GLUslope, defined as 100, where background mean vehicle control (VHLslope) were subtracted from both values on a per plate basis. Thus, %max GLU slope = (GLUslope-mean VHLslope/mean maxGLUslope-mean VHLslope).

[2] = target: GluA2flip(R)-CNIH3 (A2R-C3 TetON HEK293 cells) (Homo sapiens, UniProt P42262, Q607R); test: VSD assay (counter-screen, CRC) on A2R-C3 cells; details: for CMPDmaxmin: max-min 8-100 s; for CMPDmaxmin / CMPDSlope: compound only; for Glumaxmin: max-min normalized value 301-380 s; for Glumaxmin / GluSlope: compound+glutamate; for BaselineReturn: max 250-255 s minus min 0-5 s; for GluSlope: slope of normalized value 310-315 s; for CMPDSlope: slope 11-18 s
Chain of GluA2flip(R)-CNIH3 (A2R-C3 TetON HEK293 cells) (P42262 25-883 isoform P42262-2 Q607R limits assumed): as the sequence (P42262 25-883 isoform P42262-2 Q607R limits assumed) above
Chain of GluA2flip(R)-CNIH3 (A2R-C3 TetON HEK293 cells) (Q8TBE1 whole entry partner): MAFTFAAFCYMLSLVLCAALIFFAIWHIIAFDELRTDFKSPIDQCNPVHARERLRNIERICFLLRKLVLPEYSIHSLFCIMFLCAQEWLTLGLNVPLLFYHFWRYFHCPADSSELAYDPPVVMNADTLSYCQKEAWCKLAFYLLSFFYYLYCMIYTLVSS
Description: Cell lines used in the VSD assays were TetON HEK293 cells. This was the parental cell line for all stable cell lines created. We used GluA2flip(R) TetON HEK cell clone #4 that doxycycline (DOX) dependently expresses GluA2flip(R) (A2R). The A2R cells were used as the base cell line to derive cell lines that co-express auxiliary subunits.
as §1
This assay was carried out in the same way as the VSD screening assay except a 10-point concentration curve, from 40 μM to 10 nM, was plated in triplicate for each compound on a single 384-well plate. Data were summarized by plotting them as %max GLUslope against log [compound] that was fit to a four-parameter logistical model. %max GLUslope is defined as a normalized GLUslope expressed as a percentage of the mean maximum GLUslope, defined as 100, where background mean vehicle control (VHLslope) were subtracted from both values on a per plate basis. Thus, %max GLU slope = (GLUslope-mean VHLslope/mean maxGLUslope-mean VHLslope).

GluA2-stargazin = details: previously reported; cited from earlier work
[3] = 3.90625e-6 M, per well, plate 58169DST7
[4] = 7.8125e-6 M, per well, plate 58169DST7
[5] = 1.5625e-5 M, per well, plate 58169DST7
[6] = 3.125e-5 M, per well, plate 58169DST7
[7] = 6.25e-5 M, per well, plate 58169DST7

## O=C(c1ccc2c(c1)OCCO2)N1CCCCC1 [CX-546, 1-(1,4-benzodioxan-6-ylcarbonyl)piperidine]
[1]
  EC50: 59.4 µM
[1]; [3]
  CMPDmaxmin (maximal - minimal normalized value, 8-100 s, only compound present): 0.02005 and 0.02265 and 0.02255 and 0.0215 and 0.02263
  pctMAX (Glumaxmin as percentage MAX): -20.3423% and -18.5877% and -17.4231% and -25.653% and -23.4431%
  pctMAXslope (GluSlope as percentage MAX): 19.0119% and 16.1163% and 16.1435% and 23.5293% and 24.5477% and 19.9769%
  pctMAXslopeCMPD (CMPDSlope as percentage MAX): 26.8078% and 27.859% and 27.6784% and 25.3948% and 25.8066% and 27.049%
[1]; [4]
  CMPDmaxmin (maximal - minimal normalized value, 8-100 s, only compound present): 0.02204 and 0.02518 and 0.02221 and 0.01901
  pctMAXslope (GluSlope as percentage MAX): 18.0524% and 15.893% and 18.8435% and 18.5798% and 25.5404% and 27.1839%
  pctMAXslopeCMPD (CMPDSlope as percentage MAX): 27.7492% and 27.8022% and 28.8582% and 27.2592% and 26.4835% and 26.0048%
[1]; [5]
  CMPDmaxmin (maximal - minimal normalized value, 8-100 s, only compound present): 0.02181 and 0.01695 and 0.02869 and 0.01943 and 0.02297
  pctMAXslopeCMPD (CMPDSlope as percentage MAX): 28.6064% and 25.6086% and 27.9557% and 25.483% and 25.9044% and 26.6639%
[1]; [6]
  pctMAX (Glumaxmin as percentage MAX): -24.1315% and -27.3641% and -24.1538% and -25.136% and -22.907% and -18.6431%
  pctMAXslope (GluSlope as percentage MAX): 27.6745% and 23.6277% and 22.7715% and 21.1161% and 24.5423% and 29.8099%
  pctMAXslopeCMPD (CMPDSlope as percentage MAX): 26.044% and 27.2438% and 26.2272% and 24.5792% and 27.7844% and 28.3201%
[1]; [7]
  BaselineReturn (maximal normalized value 250-255 s minus minimal 0-5 s): 0.01812 and 0.0231 and 0.02286
  CMPDmaxmin (maximal - minimal normalized value, 8-100 s, only compound present): 0.02793 and 0.02317 and 0.02528
  pctMAXslope (GluSlope as percentage MAX): 40.7941% and 49.9185% and 35.6482%
  pctMAXslopeCMPD (CMPDSlope as percentage MAX): 27.4558% and 28.8276% and 28.6616%
[1]; 6.25e-5 M
  BaselineReturn: 0.01973 and 0.018 and 0.01152
  CMPDmaxmin: 0.02536 and 0.01826 and 0.01839
  Glumaxmin: 0.2031 and 0.2196 and 0.1717
  GluSlope: 6.2051e-6 and 9.036e-6 and 7.987e-6
[1]; 0.00025 M
  BaselineReturn: 0.05169 and 0.04966 and 0.04304 and 0.05412 and 0.05858 and 0.04633
  CMPDmaxmin: 0.05366 and 0.04763 and 0.04669 and 0.05717 and 0.05497 and 0.04716
  Glumaxmin: 0.3546 and 0.3256 and 0.3581 and 0.3601 and 0.3987 and 0.3619
  CMPDSlope: 2.511e-6 and 1.582e-6 and 1.531e-6 and 1.914e-6 and 1.992e-6 and 1.6067e-6
  GluSlope: 1.516e-5 and 1.442e-5 and 1.434e-5 and 1.326e-5 and 1.8177e-5 and 1.566e-5
[1]; 0.0005 M
  BaselineReturn: 0.1016 and 0.09236 and 0.09814 and 0.1005 and 0.08945 and 0.09494
  CMPDmaxmin: 0.09292 and 0.08599 and 0.08883 and 0.08871 and 0.09266 and 0.08518
  Glumaxmin: 0.4227 and 0.415 and 0.4148 and 0.4609 and 0.4831 and 0.4327
  CMPDSlope: 3.674e-6 and 4.188e-6 and 3.738e-6 and 3.852e-6 and 5.683e-6 and 4.257e-6
  GluSlope: 1.777e-5 and 1.508e-5 and 1.548e-5 and 1.731e-5 and 1.8778e-5 and 1.858e-5
[1]; 0.001 M
  BaselineReturn: 0.1819 and 0.178 and 0.2248 and 0.2011 and 0.1897 and 0.1856
  CMPDmaxmin: 0.1715 and 0.1673 and 0.213 and 0.1892 and 0.174 and 0.1789
  Glumaxmin: 0.4573 and 0.4826 and 0.4107 and 0.4115 and 0.4861 and 0.4796
  CMPDSlope: 9.085e-6 and 8.904e-6 and 9.403e-6 and 8.729e-6 and 8.585e-6 and 8.384e-6
  GluSlope: 1.548e-5 and 1.672e-5 (2×) and 1.1033e-5 and 1.693e-5 and 1.578e-5
[1]; HEK293, read-out: AVE %MAXCMPDslope, 0.00025 M, average of wells
  activity at 250 µM: 30.3%
[1]; HEK293, read-out: AVE %MAXCMPDslope, 0.0005 M, average of wells
  activity at 500 µM: 34.5%
[1]; HEK293, read-out: AVE %MAXCMPDslope, 0.001 M, average of wells
  activity at 1000 µM: 42.6%
[1]; HEK293, read-out: AVE %MAXCMPDslope, […], average of wells
  activity at […]: 29.5%
[1]; HEK293, read-out: AVE %MAXslope, 0.00025 M, average of wells
  activity at 250 µM: 53.6%
[1]; HEK293, read-out: AVE %MAXslope, 0.0005 M, average of wells
  activity at 500 µM: 57.1%
[1]; HEK293, read-out: AVE %MAXslope, 0.001 M, average of wells
  activity at 1000 µM: 54.1%
[1]; HEK293, read-out: AVE %MAXslope, […], average of wells
  activity at […]: 47%
[1]; HEK293, read-out: pctMAX, 0.00025 M, Glumaxmin as percentage MAX (vhl and glutamate controls)
  activity at 250 µM: 30.3%
[1]; HEK293, read-out: pctMAX, 0.0005 M, Glumaxmin as percentage MAX (vhl and glutamate controls)
  activity at 500 µM: 42.2%
[1]; HEK293, read-out: pctMAX, 0.001 M, Glumaxmin as percentage MAX (vhl and glutamate controls)
  activity at 1000 µM: 48.3%
[1]; HEK293, read-out: pctMAXslope, 0.00025 M, GluSlope as percentage MAX
  activity at 250 µM: 53.6%
[1]; HEK293, read-out: pctMAXslope, 0.0005 M, GluSlope as percentage MAX
  activity at 500 µM: 58.2%
[1]; HEK293, read-out: pctMAXslope, 0.001 M, GluSlope as percentage MAX
  activity at 1000 µM: 54.2%
[1]; HEK293, read-out: pctMAXslope, […], GluSlope as percentage MAX
  activity at […]: 49.2%
[1]; HEK293, read-out: pctMAXslopeCMPD, 0.00025 M, CMPDSlope as percentage MAX
  activity at 250 µM: 31.5%
[1]; HEK293, read-out: pctMAXslopeCMPD, 0.0005 M, CMPDSlope as percentage MAX
  activity at 500 µM: 33.5%
[1]; HEK293, read-out: pctMAXslopeCMPD, 0.001 M, CMPDSlope as percentage MAX
  activity at 1000 µM: 43%
[1]; HEK293, read-out: pctMAXslopeCMPD, […], CMPDSlope as percentage MAX
  activity at […]: 28.5%
[1]; compound-only window
  concentrations giving a slight increase in fluorescence in the absence of glutamate: > 250 µM
[2]; 3.90625e-6 M ligand, per well
  CMPDmaxmin: 0.02275 and 0.02429 and 0.01798 and 0.02168
[2]; 7.8125e-6 M ligand, per well
  CMPDmaxmin: 0.02523 and 0.02353 and 0.02165 and 0.01735
  Glumaxmin: 0.04101 and 0.05338 and 0.04284 and 0.03307 and 0.0299 and 0.0291
[2]; 6.25e-5 M ligand, per well
  CMPDmaxmin: 0.02083 and 0.02655 and 0.02189 and 0.02084 and 0.01632
  Glumaxmin: 0.04091 and 0.0333 and 0.02423 and 0.04193 and 0.044 and 0.03344
[2]; 0.00025 M ligand, per well
  BaselineReturn: 0.0251 and 0.02832 and 0.03028 and 0.03411 and 0.02776 and 0.02771
  CMPDmaxmin: 0.02518 and 0.02777 and 0.02573 and 0.03151 and 0.03447 and 0.02604
  Glumaxmin: 0.07039 and 0.07337 and 0.08523 and 0.112 and 0.08025
  GluSlope: 6.934e-6 and 8.592e-6 and 7.437e-6 and 1.202e-5 and 1.111e-5 and 6.283e-6
[2]; 0.0005 M ligand, per well
  BaselineReturn: 0.05295 and 0.05148 and 0.05075 and 0.04719 and 0.05673 and 0.04937
  CMPDmaxmin: 0.05637 and 0.05305 and 0.05109 and 0.05302 and 0.05564 and 0.06158
  Glumaxmin: 0.1143 and 0.1458 and 0.1743
  CMPDSlope: 2.7882e-6 and 3.22e-6 and 3.04e-6 and 3.857e-6 and 3.969e-6 and 3.136e-6
  GluSlope: 1.038e-5 and 1.007e-5 and 1.121e-5 and 1.228e-5 and 1.22e-5 and 1.66e-5
[2]; 0.001 M ligand, per well
  BaselineReturn: 0.1285 and 0.1243 and 0.1327 (2×) and 0.1383 and 0.1333
  CMPDmaxmin: 0.1223 and 0.1248 and 0.1314 and 0.1303 and 0.1374 and 0.1301
  CMPDSlope: 6.79e-6 and 6.675e-6 and 5.635e-6 and 5.488e-6 and 6.247e-6 and 7.073e-6
[2]; HEK293, read-out: AVE %MAXCMPDslope, 0.00025 M ligand, average over wells
  activity at 250 µM: 20.2%
[2]; HEK293, read-out: AVE %MAXCMPDslope, 0.001 M ligand, average over wells
  activity at 1000 µM: 29.1%
[2]; HEK293, read-out: AVE %MAXCMPDslope, […] ligand, average over wells
  activity at […]: 18.9%
[2]; HEK293, read-out: AVE %MAXslope, 0.00025 M ligand, average over wells
  activity at 250 µM: 33.8%
[2]; HEK293, read-out: AVE %MAXslope, 0.0005 M ligand, average over wells
  activity at 500 µM: 40.3%
[2]; HEK293, read-out: AVE %MAXslope, 0.001 M ligand, average over wells
  activity at 1000 µM: 54.1%
[2]; HEK293, read-out: AVE %MAXslope, […] ligand, average over wells
  activity at […]: 25.6%
[2]; HEK293, read-out: pctMAXslope, 0.00025 M ligand, GluSlope as percentage MAX, per well
  activity at 250 µM: 30.3%
[2]; HEK293, read-out: pctMAXslope, 0.0005 M ligand, GluSlope as percentage MAX, per well
  activity at 500 µM: 37%
[2]; HEK293, read-out: pctMAXslope, […] ligand, GluSlope as percentage MAX, per well
  activity at […]: 21%
[2]; HEK293, read-out: pctMAXslopeCMPD, 0.00025 M ligand, CMPDSlope as percentage MAX of GluSlope controls, per well
  activity at 250 µM: 19.4%
[2]; HEK293, read-out: pctMAXslopeCMPD, 0.0005 M ligand, CMPDSlope as percentage MAX of GluSlope controls, per well
  activity at 500 µM: 22.3%
[2]; HEK293, read-out: pctMAXslopeCMPD, 0.001 M ligand, CMPDSlope as percentage MAX of GluSlope controls, per well
  activity at 1000 µM: 30%
[2]; HEK293, read-out: pctMAXslopeCMPD, […] ligand, CMPDSlope as percentage MAX of GluSlope controls, per well
  activity at […]: 18.5%
GluA2-stargazin
  EC50: 563 µM
